Assay: Average particle diameter of the liposomes in each preparation (Zetasizer Nano ZS)
Format: physicochemical
Details: liposome preparation of Example 118: compound/PEG-DMPE/DSPC/cholesterol with apo-b siRNA
Source text: Preparations were produced using the compounds obtained in Examples 1 to 117, as follows.
Anti-APO-B siRNA was used as the nucleic acid. Anti-APO-B siRNA suppresses expression of an apolipoprotein-B (hereinafter, “apo-b”) gene and has a sense strand with the base sequence 5′-GmUCAmUCACACmUGAAmUACCAAmU-3′ (the sugars attached to the bases appended with m are 2′-O-methyl-substituted riboses), and an antisense strand with the base sequence 5′-[…]-3′ (the 5′-end is phosphorylated). The sense strand and the antisense strand were obtained from Nippon EGT or Hokkaido System Science Co., Ltd., and annealed to prepare the nucleic acid (hereinafter, “apo-b siRNA”).
A solution comprising the constituent components of a lipid membrane was prepared by dissolving each of the weighed samples in 90 vol % ethanol in 8.947/1.059/5.708/13.697 mmol/L [compounds 1 to 117 obtained in Examples 1 to 117/1,2-dimyristoyl-sn-glycero-3-phosphoethanolamine-A-(methoxy(polyethylene glycol)-2000) (PEG-DMPE, N-(carbonylmethoxypolyethylene glycol 2000)-1,2-dimyristoyl-sn-glycero-3-phosphoethanolamine sodium salt, NOF Corporation)/distearoylphosphatidyl choline (DSPC, 1,2-distearoyl-sn-glycero-3-phosphocholine, NOF Corporation)/cholesterol (Avanti Polar Lipids)]. Separately, apo-b siRNA/distilled water (24 mg/mL) was diluted with a Tris-EDTA buffer (200 mM Tris-HCl, 20 mM EDTA, Invitrogen) and a 20 mM citric acid buffer (pH 5.0) to prepare a 1.5 mg/mL apo-b siRNA aqueous solution (2 mM Tris-EDTA buffer, pH 5.0).
The resulting lipid solution was heated to 37° C., and a […] portion was transferred to a preparation container. The apo-b siRNA aqueous solution (100 μL) was then added thereto while being stirred. Then, a 20 mM citric acid buffer (containing 300 mM NaCl, pH 6.0; 200 μL) was added to the lipid nucleic acid mixed suspension (200 μL) while being stirred. The siRNA concentration was brought to 10 μM by dropping a Dulbecco phosphate buffer (DPBS, Invitrogen; 662 μL), and preparations (compositions comprising compounds 1 to 117 and the nucleic acid) were obtained.
The average particle diameter of the liposomes in each preparation was measured with a particle diameter measurement device (Malvern; Zetasizer Nano ZS).

Particle diameter of Preparetion [nm] | Compound
148.9 | CCCCC/C=C\C/C=C\CCCCCCCCO[C@@H]1CN(CC(C)O)C[C@H]1OCCCCCCCC/C=C\C/C=C\CCCCC (mixture of isomers) [Compound 54, 1-((3R,4R)-3,4-bis((9Z,12Z)-Octadec-9,12-dienyloxy)pyrrolidine-1-yl)propan-2-ol]
150.0 | CCCCC/C=C\C/C=C\CCCCCCCCO[C@H]1CNC[C@@H]1OCCCCCCCC/C=C\C/C=C\CCCCC [Compound 43, (3S,4S)-3,4-bis((9Z,12Z)-Octadec-9,12-dienyloxy)pyrrolidine]
129.2 | CCCCC/C=C\C/C=C\CCCCCCCCO[C@H]1CN(C)C[C@@H]1OCCCCCCCC/C=C\C/C=C\CCCCC [Compound 50, (3S,4S)-1-Methyl-3,4-bis((9Z,12Z)-octadec-9,12-dienyloxy)pyrrolidine]
152.4 | CCCCC/C=C\C/C=C\CCCCCCCC(=O)OC1CN(CC(O)CO)C[C@H]1OC(=O)CCCCCCC/C=C\C/C=C\CCCCC (stereo partly drawn) [Compound 53, (3R,4R)-1-(2,3-diHydroxypropyl)pyrrolidine-3,4-diyl di((9Z,12Z)-octadec-9,12-enoate)]
139.6 | CCCCC/C=C\C/C=C\CCCCCCCCOC1CN(CC(O)COC)C[C@H]1OCCCCCCCC/C=C\C/C=C\CCCCC (stereo partly drawn) [Compound 55, 1-(3R,4R)-3,4-bis(((9Z,12Z)-Octadec-9,12-dienyloxy)pyrrolidine-1-yl)-3-methoxypropan-2-ol]
151.8 | CCCCC/C=C\C/C=C\CCCCCCCCOC1CN(CCC(=O)N(C)C)C[C@H]1OCCCCCCCC/C=C\C/C=C\CCCCC (stereo partly drawn) [Compound 58, 3-((3R,4R)-3,4-bis((9Z,12Z)-Octadec-9,12-dienyloxy)pyrrolidin-1-yl)-N,N-dimethyl propanamide]
116.7 | CCCCC/C=C\C/C=C\CCCCCCCCOC1CN(CCCN(C)C)C[C@H]1OCCCCCCCC/C=C\C/C=C\CCCCC (stereo partly drawn) [Compound 59, (3R,4R)-1-(3-N,N-Dimethylaminopropyl)-3,4-bis((9Z,12Z)-octadec-9,12-dienyloxy)pyrrolidine]
128.9 | CCCCC/C=C\C/C=C\CCCCCCCC(=O)OC1CN(C(=O)CN)C[C@H]1OC(=O)CCCCCCC/C=C\C/C=C\CCCCC (stereo partly drawn) [Compound 65, (3R,4R)-1-(2-aminoacetyl)pyrrolidine-3,4-diyl di((9Z,12Z)-octadec-9,12-enoate)]
137.4 | CCCCC/C=C\C/C=C\CCCCCCCC(=O)OC1CN(C(=O)[C@@H](N)CCCCN)C[C@H]1OC(=O)CCCCCCC/C=C\C/C=C\CCCCC (stereo partly drawn) [Compound 66, (3R,4R)-1-((S)-2,6-Diaminohexanoyl)pyrrolidine-3,4-diyl di((9Z,12Z)-octadec-9,12-enoate)]
152.8 | CCCCC/C=C\C/C=C\CCCCCCCCCCOCC1CN(C(=O)[C@@H](N)CCCCN)C[C@H]1COCCCCCCCCCC/C=C\C/C=C\CCCCC (stereo partly drawn) [Compound 115, trans-1-((S)-2,6-Diaminohexanoyl)-3,4-bis(((11Z,14Z)-icos-11,14-dienyloxy)methyl) pyrrolidine]

Same assay, conditions: preparations of Comparative Examples 1 to 8, made as in Example 118 with apo-b siRNA

average particle diameter of the liposomes in the preparation [nm] | Compound
141.0 | CCCCC/C=C\C/C=C\CCCCCCCC(=O)O[C@@H]1CN(C)C[C@H]1OC(=O)CCCCCCC/C=C\C/C=C\CCCCC [Compound A-3, (3R,4R)-1-Methylpyrrolidine-3,4-diyl di((9Z,12Z)-octadec-9,12-dienoate), reference compound]
131.1 | CCCCCCCC/C=C\CCCCCCCC(=O)O[C@@H]1CN(C)C[C@H]1OC(=O)CCCCCCC/C=C\CCCCCCCC [Compound A-4, (3R,4R)-1-Methylpyrrolidine-3,4-diyl di((Z)-octadec-9-enoate), reference compound]
136.4 | CCCCC/C=C\C/C=C\CCCCCCCC(=O)OCCN(C)CCOC(=O)CCCCCCC/C=C\C/C=C\CCCCC [Compound A-5, N-Methyl-N,N-bis(2-((9Z,12Z)-1-oxooctadec-9,12-dienyloxy)ethyl)amine, reference compound]
139.5 | CCCCCCCC/C=C\CCCCCCCC(=O)OCCN(C)CCOC(=O)CCCCCCC/C=C\CCCCCCCC [Compound A-6, N-Methyl-N,N-bis(2-((Z)-1-oxooctadec-9-enyloxy)ethyl)amine, reference compound]
167.8 | CCCCC/C=C\C/C=C\CCCCCCCCO[C@@H]1CN(Cc2ccccc2)C[C@H]1OCCCCCCCC/C=C\C/C=C\CCCCC [Compound VI-3, (3R,4R)-1-Benzyl-3,4-bis((9Z,12Z)-octadec-9,12-dienyloxy)pyrrolidine, reference compound]
157.8 | CCCCCCCC/C=C\CCCCCCCCO[C@@H]1CN(Cc2ccccc2)C[C@H]1OCCCCCCCC/C=C\CCCCCCCC [Compound VI-4, (3R,4R)-1-Benzyl-3,4-bis((Z)-octadec-9-enyloxy)pyrrolidine, reference compound]

Compound | average particle diameter of the liposomes in the preparation [nm]
CCCCCCCC/C=C\CCCCCCCC(=O)OCC(C[N+](C)(C)C)OC(=O)CCCCCCC/C=C\CCCCCCCC.[Cl-] (centres unmarked) [DOTAP, N-(2,3-di-(9-(Z)-octadecenoyloxy))-prop-1-yl-N,N,N-trimethylammonium chloride, reference compound] | 104.0

From US9845306B2, “Cationic lipid” (Kyowa Hakko Kirin Co., Ltd., priority 2010, dated 2017)
